Laboratory results published in patent US11406645B2, “Acetamide thienotriazolodiazepines and uses thereof” (Dana-Farber Cancer Institute, Inc., priority 2015, dated 2022).

Experiments:
[1] = male, CD1, mouse, in vivo
Experimental: (§1) Pharmacokinetic parameters were determined by administration of a candidate bromodomain inhibitor to male CD1 mice. Intravenous doses were delivered at 5 mg/kg, and oral doses at 10 mg/kg (N=3). […] The compound concentration in mouse blood was monitored over 24-hour time period to check the compound concentration in blood at 5 min, 30 min, 1 hour, 2 hours, 6 hours, 12 hours, and 24 hour via a series bleeding.

[2] = Pharmacokinetics in male CD1 mice, oral administration (whole blood); conditions: oral 10 mg/kg, N=3, whole blood
Experimental: as §1

`Cc1sc2c(c1C)C(c1ccc(Cl)cc1)=N[C@@H](CC(=O)N1CCC(N3CCCCC3)CC1)c1nnc(C)n1-2` [Compound 603] gave an F [1] of 20%.
`Cc1sc2c(c1C)C(c1ccc(Cl)cc1)=N[C@@H](CC(=O)N1CCn3c(nnc3C(F)(F)F)C1)c1nnc(C)n1-2` [Compound 605] showed an F [1] of 6%.
Compound `Cc1sc2c(c1C)C(c1ccc(Cl)cc1)=N[C@@H](CC(=O)NCCCN1CCCC1)c1nnc(C)n1-2` [Compound 604] has an F [1] of 7%.
With `Cc1sc2c(c1C)C(c1ccc(Cl)cc1)=N[C@@H](CC(=O)OC(C)(C)C)c1nnc(C)n1-2` [JQ1] the Tmax [2] was 15 min.
Work on `Cc1sc2c(c1C)C(c1ccc(Cl)cc1)=N[C@@H](CC(=O)NCCCN1CCC(N3CCCCC3)CC1)c1nnc(C)n1-2` [Compound 602] yielded an F [1] of 2%.
Work on `Cc1sc2c(c1C)C(c1ccc(Cl)cc1)=N[C@@H](CC(=O)NCC1CCN(CCN(C)C)CC1)c1nnc(C)n1-2` [Compound 601] yielded an F [1] of 4%.
